Assay results reported in US10342853B2, “Leptin active peptide having D helix region mutations, coding gene thereof, and application thereof” (SHANGHAI YUANXIN BIOCHEMICAL SCIENCE AND TECHNOLOGY CO. LTD., priority 2015, dated 2019).

Tested on: 3T3-L1 preadipocyte line
Assay: In-vitro lipid-lowering (adipocyte-degrading) activity analysis, MTT detection
Assay type: cell-based
Procedure: Lipid degradation activity of the synthesized leptin active peptide having helix D region mutation is analyzed on a cellular level by taking a 3T3-L1 preadipocyte line as a model. Specific operations are as follows:
b: an early differentiation stage D0-D2 (0-2nd day of induced differentiation); and
c: a mature adipocyte stage D9 (the 9th day of induced differentiation);
a. leptin active peptide having helix D region mutation (PEP-D): diluted to 10^−3M with purified water and preserved at −20 degree C. for later use. After an experiment is started, working concentrations have 3 concentration gradients, that is, 10^−6M, 10^−9M and 10^−11M;
b. positive control. I: H-LEP, recombinant human-derived leptin protein (10221-HNAE, Beijing Sino Biological Inc.), diluted to 10^−6M with purified water and preserved at −20 degree C. for later use. After an experiment is started, the working concentration is 10^−9M;
c. positive control 2: Ros (Rosiglitazone, 82408, Sigma), diluted to a stock solution with a concentration of 2518 μM with DMSO and preserved at −20 degree C. for later use. After an experiment is started, the stock solution is diluted to a working solution of 0.5 μM with cell culture fluid;
d. negative control (Control): equivalent quantity of PBS
(1) Inoculating 3T3-L1 preadipocytes in corning cell bind 96-well plates (totally inoculated with 3 plates, respectively plate a, plate b and plate c), wherein the inoculation density is 4500 cells/well; and marking, and standing and culturing at 37 degree C. in a 5% CO2 incubator. Each sample of each plate is operated repeatedly for 3 times, and the whole experiment is repeated for 3 times;
(2) Continuously culturing for 48 hours after the cells are merged to 100% (enabling the cells to exit from a growth cycle, and starting induced differentiation); and
i, taking out the plate a; respectively adding different amounts of leptin active peptide having helix D region mutation (PEP-D) to enable the working concentrations to be respectively 3 concentration gradients, that is, 10^−6M, 10^−9M and 10^−11M; setting 2 positive controls, a negative control (PBS) and a blank control (3 repeated holes are set for each sample), and continuously standing and culturing at 37 degree C. in the 5% CO2 incubator.
ii, when culturing to 45 hours (that is, 3 hours before the end of drug treatment), taking out the plate a, and measuring MTT (preadipocytes). Specific operations: adding 20 μL of 5 mg/mL of MTT solution into each well, continuously standing and culturing at 37 degree C. in the 5% CO2 incubator for 3 hours, sucking and discarding the culture solution in the wells, adding 150 μL of DMSO into each well, horizontally shaking for 10 min, detecting a light absorption value at 492 nm by a microplate reader, and drawing a growth curve;
i, taking out the plate b; adding the differentiation induced liquid I (D0); respectively adding the leptin active peptide having helix D region mutation (PEP-D); setting 2 positive controls, a negative control (PBS) and a blank control (3 repeated holes are set for each sample), and continuously standing and culturing at 37 degree C. in the 5% CO2 incubator.
ii, when culturing to 45 hours (that is, 3 hours before the end of drug treatment), taking out the plate b, and measuring MTT (at the early differentiation stage, D0-D2). Specific operations: adding 20 μL, of 5 mg/mL of MTT solution into each well; continuously standing and culturing at 37 degree C. in the 5% CO2 incubator for 3 hours; sucking and discarding the culture solution in the wells; adding 150 μL of DMSO into each well; horizontally shaking for 10 min; detecting a light absorption value at 492 nm by the microplate reader; and drawing a growth curve;
i, taking out the plate c; adding the differentiation induced liquid I (D0) into each well; and continuously standing and culturing at 37 degree C. in the 5% CO2 incubator for 48 hours; […]

Substance	adipocyte lysis activity vs. negative control (Control, PBS) (MTT, FIG. 2 mark a, P<0.05, H-LEP 10^−9M, Ros 0.5 μM)	adipocyte lysis activity vs. H-LEP (MTT, FIG. 2 mark b, P<0.05)	adipocyte lysis activity vs. Ros (MTT, FIG. 2 mark c, P<0.05)	concentration dependence of lipid-lowering activity (MTT, PEP-D at 10^−6M, 10^−9M and 10^−11M)	concentration with optimal lipid-lowering effect (MTT, of 10^−6M, 10^−9M and 10^−11M tested, on a whole)	dependence of lipid-lowering activity on cell differentiation period (MTT, preadipocytes, D0-D2, D9)	adipocyte-degrading activity compared with positive controls H-LEP and Ros (MTT, three cell differentiation stages (preadipocytes, early differentiation D0-D2, mature adipocyte D9), H-LEP 10^−9M, Ros 0.5 μM)	cell lysis effects at three stages (preadipocytes stage, differentiation stage (D0-D2), mature adipocyte stage (D9))
H-LEP: recombinant human-derived leptin protein (10221-HNAE, Beijing Sino Biological Inc.), positive control	obviously better than that of the negative control							
STEVVALDGLQGSLQTMLLQLEYS (An amino acid sequence of the leptin active peptide having helix D region mutation) [PEP-D]		obviously better than that of the H-LEP	obviously better than that of the Ros	obvious concentration dependence	10^−9 M	dependence in a cell differentiation period	obviously better than that of positive control-human-derived leptin protein (H-LEP) and a commercially available drug rosiglitazone (Ros)	obvious cell lysis effects
